For 1 compound, melting point results are on record in patent US7297708B2, “Heteroaromatic substituted cyclopropane as corticotropin releasing hormone ligands” (Bristol-Myers Squibb Company, priority 2001, dated 2007).

As to `COc1ccccc1C1(c2ncc(C)c(-c3ccc(Cl)cc3Cl)n2)CC1` [Compound 11, 4-(2,4-Dichloro-phenyl)-2-[1-(2-methoxy-phenyl)-cyclopropyl]-5-methyl-pyrimidine], the melting point was in the range of 46 to 48 °C.
